Results from patent publication US12458622B2, “Methods of treatment of coronavirus-induced inflammation conditions” (priority 2020, dated 2025).

What was measured:
[1] = test system: HMC3 human microglia cells; experiment: MSD U-PLEX cytokine secretion induced by TNF-α; type: cell-based; parameters: increase in IL-1β secretion compared to untreated HMC3 cells / increase in IL-6 secretion compared to untreated HMC3 cells / increase in IL-8 secretion compared to untreated HMC3 cells / IFN-γ secretion: dose or concentration left out as unconfirmed; conditions: for inhibition at 3 µM: Homo sapiens, HMC3
Description: (§1) Human microglial cell line HMC3 (CRL-3304) was purchased from ATCC (American Type Culture Collection). HMC3 cell line was cultured in DMEM medium with 10% FBS, 1% L-glutamine, and 1% penicillin/streptomycin. Cells were maintained in 37° C. incubator at 5% CO2.
(§2) HMC3 cells were resuspended, counted using the LUNA-II Automated Cell Counter, seeded in the 6-well plate (400 K cells/2 mL medium/well), and incubated overnight to allow cells to attach. The media and detached cells were removed next day. The cell layer was washed three times in PBS and once in serum- and phenolred-free DMEM (SPFM). […] The conditioned medium was collected and centrifuged at 1,000×RCF (g) for 5 min to pellet detached cells and large debris, which was subsequently passed through a 0.22 μm filter with PVDF membrane to remove smaller debris. Samples of the supernatant medium were put in a CoolRack (#07210041, Fisher Scientific) on dry ice for Snap-freezing and kept at −80° C. until use.
(§3) Meso-scale U-PLEX plates that detect a cytokine panel including IL-1β, IL-2, IL-4, IL-6, IL-8, IL-10, IFN-γ, TNF-α, and a chemokine panel including IP-10/CXCL10, MCP-1/CCL2, MIP-1α/CCL3, MIP-1P/CCL4, Eotaxin/CCL11, were used as per manufacture's protocol. 25 μL of the conditioned medium was used in each well of the MSD plates to detect the analytes. The plates were then analyzed on an MSD QuickPlex SQ120 instrument.
(§4) All the data were presented as mean±standard error from at least three times, each done in triplicate. The statistical significance between two groups was determined by Student's t test, whereas the comparisons of multiple groups were carried out by one-way ANOVA, followed by Bonferroni's post-test using GraphPad Prism 7 (GraphPad Software, Inc.). A probability value of * p<0.05 was considered to be significant.

[2] = test system: HMC3 human microglia cells; experiment: Cell viability assay by AO/PI stain; type: cell-based; conditions: for microglia death: 300 ng/mL, 24 hr
Description: as §1
(§5) HMC3 cells were resuspended, counted using the LUNA-II Automated Cell Counter, seeded in the 6-well plate (300 K cells/2 mL medium/well), and incubated overnight to allow cells to attach. Cells were treated with TNF-α or IFN-γ at five different concentrations (0, 10, 30, 100, 300 ng/mL) for 24 hr to induce cell activation. The supernatant medium was completely aspirated and 1 mL of fresh DMEM was added to wash the cell layer to remove detached cells and debris. The attached cells were resuspended and washed with PBS. Cells were washed with FACS buffer (2% FBS in PBS) prior to incubation with Zombie Violet Fixable Viability Dye (#423114, Biolegend, 1:500 dilution) and Human Fe Receptor Blocking Solution (#422302, Biolegend, 1:20) diluted in FACS buffer at RT for 10 min in the dark. Cells were then washed with FACS buffer and incubated at RT for 20 min with the following cell-surface antibodies: FITC anti-MHC II (#361706, Biolegend), PerCP/Cy5.5 anti-CD11b (#301328, Biolegend), BV605 anti-CD40 (#334336, Biolegend), PE anti-CD86 (#374206, Biolegend), PE/Cy7 anti-CD163 (#326514, Biolegend), APC anti-CD206 (#321110, Biolegend), and PerCP/Cy5.5 anti-CD14 (#367110, Biolegend). All of the cell-surface antibodies were diluted 1:20 in FACS buffer. Cells were permeabilized using the Transcription Factor Fixation/Permeabilization Buffer Set (#424401, Biolegend). Then cells were incubated with the following intracellular antibodies: APC/Cy7 anti-CD68 (#333822, Biolegend), purified anti-IBA1 (#PA5-27436, Invitrogen), Goat anti-Rabbit-Alexa Fluor 647 (#A21245, Invitrogen), purified anti-GFAP (#644702, Biolegend), and Goat anti-Mouse-Alexa Fluor 488 (#11029, Invitrogen). All of the intracellular antibodies were diluted 1:100 in the Permeabilization buffer (lx). Cells were washed with Permeabilization buffer and fixed in Fixation Buffer (#420801, Biolegend). Flow cytometry was performed using the Attune NxT Acoustic Focusing Cytometer (Thermo Fisher Scientific). Analysis of flow cytometry data was performed via FCS Express 7 (DeNovo Software).
Cell viability was assessed with a LUNA-FL Automated fluorescence cell counter. Viable nucleated cells show green fluorescence and dying nucleated cells show red fluorescence. 18 µL of sample was mixed with 2 μL Acridine Orange/Propidium Iodide (AO/PI) Stain.
as §4

[3] = test system: HMC3 human microglia cells; experiment: MSD U-PLEX chemokine secretion induced by TNF-α; type: cell-based; conditions: 0.3 μg/mL TNF-α, 24 hours; for inhibition at 3 µM: Homo sapiens, HMC3
Description: as §1, §2, §3, §4

[4] = test system: H5N1 virus; conditions: after H5N1 virus infection; cited from earlier work
[5] = test system: HMC3 human microglia cells; experiment: Flow cytometry of microglia activation biomarkers; type: cell-based; conditions: 300 ng/mL, 24 hr
Description: as §1
as §5, with “Cells were washed with Permeabilization buffer and fixed in Fixation Buffer (#420801, Biolegend). Flow cytometry was performed using the Attune NxT Acoustic Focusing Cytometer (Thermo Fisher Scientific). Analysis of flow cytometry data was performed via FCS Express 7 (DeNovo Software).” left out

With O=C(O)c1cc(=O)c2c(OCC(F)COc3cccc4oc(C(=O)O)cc(=O)c34)cccc2o1 [F-cromolyn] the IFN-γ concentration ([1]; 0.3 μM, TNF-α induced, 24 hr) was “decreased”, the IL-1β concentration ([1]; 0.3 μM, TNF-α induced, 24 hr) was “decreased” and the IL-6 concentration ([1]; 0.3 μM, TNF-α induced, 24 hr) was “decreased”. The IL-8 concentration ([1]; 0.3 μM, TNF-α induced, 24 hr) was “decreased”, the inhibition at 3 µM ([1]; TNF-α induced, 24 hr, read-out: inhibition of IFN-γ) was > 50% and the inhibition at 3 µM ([1]; TNF-α induced, 24 hr, read-out: inhibition of IL-1β) was > 50%. For the same compound, the inhibition at 3 µM ([1]; TNF-α induced, 24 hr, read-out: inhibition of IL-6) was 39.8%, the inhibition at 3 µM ([1]; TNF-α induced, 24 hr, read-out: inhibition of IL-8) was 27.9% and the “TNF-α induced cell death” value ([2]; 0.3 μM, TNF-α 0.3 μg/mL) was “significantly reduced cell death”. The “extracellular IP-10 (CXCL10)” value ([3]; 0.3 μM) was “can inhibit”, the “extracellular MCP-1 (CCL2)” value ([3]; 0.3 μM) was “can inhibit” and the “extracellular MIP-1α (CCL3)” value ([3]; 0.3 μM) was “can inhibit”. The “extracellular MIP-1β (CCL4)” value ([3]; 0.3 μM) was “can inhibit”, the inhibition at 3 µM ([3]; read-out: inhibition of IP-10 (CXCL10)) was > 40% and the inhibition at 3 µM ([3]; read-out: inhibition of MCP-1 (CCL2)) was > 40%. For the same compound, the inhibition at 3 µM ([3]; read-out: inhibition of MIP-1α (CCL3)) was 36% and the inhibition at 3 µM ([3]; read-out: inhibition of MIP-1β (CCL4)) was > 40%.
For CN1CCC(=C2c3ccccc3CC(=O)c3sccc32)CC1 [ketotifen], the lung injury [4] is given as “improved”.
With TNF-α the IFN-γ secretion ([1]; 24 hours) was “caused the previously quiescent cells to secrete IFN-γ”, the “increase in IL-1β secretion compared to untreated HMC3 cells” value ([1]; 24 hours) was > 177 fold and the “increase in IL-6 secretion compared to untreated HMC3 cells” value ([1]; 24 hours) was > 177 fold. For the same compound, the “increase in IL-8 secretion compared to untreated HMC3 cells” value ([1]; 24 hours) was > 177 fold, the microglia death [2] was 15.6% and the “cell death, share of the total population” value ([2]; TNF-α 0.3 μg/mL) was “approximately 20%”. For the same compound, the “expression of inflammatory microglia biomarkers” value [5] was “increases the expression”.
For “IFN-γ: recombinant human IFN-γ, used to activate HMC3 microglia”, the microglia death [2] was 19.7%, the “expression of anti-inflammatory microglia biomarkers (CD163 and CD206)” value [5] was “no alteration” and the “expression of inflammatory microglia biomarkers” value [5] was “increased protein expression”.
